Measured values published in article PMC5893132, “Selective inhibition of histamine-evoked Ca^2+ signals by compartmentalized cAMP in human bronchial airway smooth muscle cells” (Cell Calcium, 2018).
Structures can show the parent of a compound that is named as a salt.

Tested on: histamine-evoked Ca^2+ signals in hBASMCs
Assay: Histamine-evoked Ca2+ signals in populations of fluo-4-loaded hBASMCs
Format: cell-based, human
Settings: HBSS
Description: Two methods were used to measure [Ca^2+]i in populations of hBASMCs. For measurements using a FlexStation III plate-reader (Molecular Devices, Sunnyvale, CA, USA), hBASMCs were seeded into 96-well plates (10^4 cells per well). After about 4 days, when the cells were confluent, the medium was replaced with SMGM-2 without serum or growth factor supplements, and the cells were used after a further 24 h. This period in serum-free medium increased by about 2-fold the amplitude of the increases in [Ca^2+]i evoked by histamine (results not shown). Cells were washed with HEPES-buffered saline (HBS: 135 mM NaCl, 5.9 mM KCl, 1.2 mM MgCl2, 1.5 mM CaCl2, 11.6 mM HEPES, 11.5 mM D-glucose, pH 7.3), and loaded with fluo-4 by incubation with fluo-4-AM (2 μM) in HBS (100 μL per well) containing pluronic F127 (0.02%, v/v) and probenecid (2.5 mM). After 1 h at 20 °C, the medium was replaced with HBS (100 μL per well) containing probenecid (2.5 mM). After a further incubation at 20 °C for 1 h, the medium was replaced with HBS (60–80 μL per well) or nominally Ca^2+-free HBS, and the cells were used immediately for experiments at 20 °C. In some experiments, BAPTA (2.5 mM) was added to HBS during the recording; this reduced the free [Ca^2+] of the HBS to ∼120 nM without affecting the pH. Drug additions (20 μL at 4 or 5 times the final concentration) were added automatically. Fluorescence from fluo-4 (excitation 485 nm, emission 525 nm) was recorded at 1.44-s intervals using Softmax Pro 5.4 (Molecular Devices). Fluorescence was calibrated to [Ca^2+]i from: [Ca^2+]i=KDCa×(F−Fmin/Fmax−F) where, KDCa is the equilibrium dissociation constant of fluo-4 for Ca^2+ (345 nM), F is the recorded fluorescence, and Fmin and Fmax are the fluorescence values recorded after addition of triton-X-100 (0.1%, v/v) with either BAPTA (10 mM, Fmin) or CaCl2 (10 mM, Fmax). Although treatment with triton-X-100 releases fluo-4 from cells into the medium, the fluo-4 fluorescence is captured with the same efficiency whether it is trapped within cells or dispersed within the small volume of the wells (unpublished observations). Fmax was determined for each well at the end of an experiment, and the average value was used for each column of 8 wells. Fmin was determined from parallel wells on each plate.
For measurements of [Ca^2+]i using an FDSS 7000 FLIPR (Hamamatsu), hBASMCs were seeded into 384-well plates (8000 cells per well) in 20 μL of SMGM-2 containing 5% serum. After 24 h, the medium was replaced with 15 μL of serum-free SMGM-2, and after a further 6 h the cells were loaded with Ca^2+ indicator by addition of FLIPR calcium 4 assay kit (Molecular Devices) supplemented with probenecid (2.5 mM). The exact composition of this ‘no-wash’ indicator kit is not disclosed by the manufacturer, but it contains fluo-4-AM and components that reduce background fluorescence. The manufacture’s stock solution was diluted 10-fold into HBSS containing BSA (0.1%, w/v) and HEPES (20 mM); 5 μL of this solution was then added to each well (containing 15 μL of serum-free SMGM-2). After 2 h at 37 °C in humidified air containing 5% CO2, the plate was used for experiments at 20 °C. Most additions (5 μL) were prepared in HBSS supplemented with HEPES (20 mM) and BSA (0.1%, w/v). For more prolonged incubations, drugs were diluted in the initial loading medium (to avoid changes in dye-loading during the ‘no wash’ protocol). Fluorescence signals (excitation at 480 nm, emission at 540 nm) were calibrated to [Ca^2+]i after measurement of Fmin and Fmax uniquely for each well, using a KDCa = 345 nM.
All concentration-effect relationships were determined by addition of different drug concentrations to individual wells in the same multi-well plate, rather than by sequential additions to the same well. […]

Compound: CC(C)NC[C@H](O)c1ccc(O)c(O)c1 [isoproterenol, (−)-isoproterenol hydrochloride]
- IC50 (Homo sapiens, added 5 min before histamine 10 μM, n = 4, read-out: pIC50 for inhibition of histamine-evoked Ca2+ signals (converted)): 8.13 nM
- maximal amplitude of the peak increase in [Ca2+]i evoked by histamine after pre-treatment (after isoproterenol 10 μM, 5 min, n = 7, control 242 ± 15 nM): 168 ± 19 nM
